“And” between values parts separate entries of the source, which are not always exact repeats. Equal values may be shown once.
Experiment: xn = mol fraction of the nth substance listed

CC1CCC(=O)O1 (centres undefined) + O
viscosity [mPa·s], 101 kPa
Conditions | x1 = 0.0503 | x1 = 0.0995 | x1 = 0.1997 | x1 = 0.2994 | x1 = 0.3997 | x1 = 0.499 | x1 = 0.5994 | x1 = 0.701 | x1 = 0.7995 | x1 = 0.8996
298.15 K | 1.405 | 1.747 | 2.113 | 2.204 | 2.169 | 2.055 | 1.998 | 1.902 | 1.856 | 1.823
303.15 K | 1.243 | 1.533 | 1.852 | 1.939 | 1.921 | 1.831 | 1.786 | 1.719 | 1.689 | 1.671
308.15 K | 1.107 | 1.357 | 1.638 | 1.721 | 1.714 | 1.65 | 1.612 | 1.566 | 1.545 | 1.538
313.15 K | 0.962 | 1.193 | 1.449 | 1.529 | 1.531 | 1.487 | 1.454 | 1.426 | 1.408 | 1.407
318.15 K | 0.8912 | 1.089 | 1.31 | 1.384 | 1.392 | 1.36 | 1.342 | 1.32 | 1.311 | 1.314

Cc1cccc(O)c1 + C[N+](C)(C)CCO.[Cl-]
298.15 K, 101.33 kPa
Conditions | viscosity
x1 = 0.7 | 138.1 mPa·s
x1 = 0.8 | 74.18 mPa·s and 56.16 mPa·s and 49.24 mPa·s
x1 = 0.9 | 39.12 mPa·s

C[N+](=O)[O-] + Cc1ccc(C)cc1
293.15 K, 101.33 kPa
Conditions | viscosity [mPa·s]
x1 = 0.1151 | 0.632
x1 = 0.2724 | 0.628
x1 = 0.4256 | 0.626
x1 = 0.481 | 0.625
x1 = 0.6051 | 0.625
x1 = 0.6915 | 0.626
x1 = 0.794 | 0.627
x1 = 0.8837 | 0.632

Cc1cccc(O)c1 + CC(=O)c1ccccc1
303.15 K, 101 kPa
Conditions | viscosity [mPa·s]
x2 = 0.139 | 8.438
x2 = 0.1802 | 8.063
x2 = 0.27 | 7.268
x2 = 0.4388 | 5.843
x2 = 0.4644 | 5.63
x2 = 0.5506 | 4.927
x2 = 0.7407 | 3.39
x2 = 0.8321 | 2.684
x2 = 0.9266 | 2

Cc1cccc(O)c1 + Cc1ccccc1N
298.15 K, 101 kPa
Conditions | viscosity [mPa·s]
x1 = 0.33 | 8.06
x1 = 0.496 | 11.21
x1 = 0.662 | 13.84
x1 = 0.751 | 13.76

Reference: the CheMixHub viscosity set
